Drawing on ChEMBL document CHEMBL1137532, “Mutation and inhibition studies of mevalonate 5-diphosphate decarboxylase” (Bioorg Med Chem Lett, 2007), this text covers IC50, Km and Vmax for eleven molecules.

A short description of data set [1]: Inhibition of rat MDD.
The species named for data set [2] is Rattus norvegicus. Put plainly: Activity of wild type MDD in rat liver.
Substrate in data set [3]: C[C@@](O)(CCOP(=O)(O)OP(=O)(O)O)CC(=O)O
The experiment in a line: (§1) Activity of MDD K27A mutant. The conditions noted are these: Rattus norvegicus.

Substrate in data set [4]: Nc1ncnc2c1ncn2[C@@H]1O[C@H](COP(=O)(O)OP(=O)(O)OP(=O)(O)O)[C@@H](O)[C@H]1O
The description is as §1. The conditions noted are these: Rattus norvegicus.

Substrate in data set [5]: C[C@@](O)(CCOP(=O)(O)OP(=O)(O)O)CC(=O)O
The experiment in a line: (§2) Activity of MDD R154A mutant. To be noted: Rattus norvegicus.

Substrate in data set [6]: Nc1ncnc2c1ncn2[C@@H]1O[C@H](COP(=O)(O)OP(=O)(O)OP(=O)(O)O)[C@@H](O)[C@H]1O
The data set is described as §2. To be noted: Rattus norvegicus.

One may read the IC50 as the concentration that gives 50% inhibition. Low readings indicate greater potency in that assay, high ones weaker potency in that assay. The molecule `CC(C)(O)CCOP(=O)(O)OP(=O)(O)O` had a half-inhibitory concentration (IC50) in data set [1] of 60 µM.
In turn, `CCC(C)(O)CCOP(=O)(O)OP(=O)(O)O` (stereo unspecified) returned an IC50 in data set [1] of 80 µM. This IC50 and that of the molecule before are within 1.5-fold of each other.
For `CCCC(C)(O)CCOP(=O)(O)OP(=O)(O)O` (stereo unspecified), the IC50 in data set [1] turned out to be 120 µM. This IC50 is about 1.5-fold higher than that of the molecule before.
Take `CC(O)(CCOP(=O)(O)OP(=O)(O)O)Cc1ccccc1` (stereo unspecified): the IC50 in data set [1] worked out at 140 µM.
In turn, `CC(O)(CCOP(=O)(O)OP(=O)(O)O)C(F)(F)C(=O)O` (stereo unspecified) registered an IC50 in data set [1] of 7.5 µM.
As usually defined, the Km is the concentration of substrate that gives half-maximal velocity. Usually Vmax stands for the rate approached at saturating substrate. As to `C[C@@](O)(CCOP(=O)(O)OP(=O)(O)O)CC(=O)O`, in data set [2], the Km was 36 µM and the Vmax is 6.6 µmol/min/mg.
For the molecule `CC(O)(CCF)CCOP(=O)(O)OP(=O)(O)O` (stereo unspecified), in data set [1], the half-maximal inhibitory concentration (IC50) was determined as 50 µM.
Still for that read-out and setting: to `CCC(O)(CCOP(=O)(O)OP(=O)(O)O)C(F)C(=O)O` (stereo unspecified) belongs 20 µM.
In the case of `Nc1ncnc2c1ncn2[C@@H]1O[C@H](COP(=O)(O)OP(=O)(O)OP(=O)(O)O)[C@@H](O)[C@H]1O`, the Michaelis constant (Km) in data set [2] worked out at 530 µM.

B1: Diphosphomevalonate decarboxylase (Rattus norvegicus), Q62967 K27A (protein)
chain: MASEKPQDLMVTCTAPVNIAVIKYWGARDEALILPINPSLSVTLHQDQLKTTTTAAISKDFTEDRIWLNGREEDVGQPRLQACLREIRRLARKRRSTGDGDALPLSLGYKVHVASVNNFPTAAGLASSAAGYACLAYTLARVYGVEGDLSEVARRGSGSACRSLYGGFVEWQMGEQADGKDSIARQIAPEWHWPQLRVLILVVSAEKKPTGSTVGMQTSVATSTLLKFRAESIVPERMKEMTRCIQEQDFQAFAQLTMKDSNQFHATCLDTFPPISYLNDTSRRIIQLVHRFNAHHGQTKVAYTFDAGPNAVIFTLEDTVAEFVAAVRHSFPPAANGDKFLKGLQVAPVLLSDELKTSLATEPSPGGVQYIIATQVGPGPQVLDDPHHHLLGPDGLPQRDL
B1: in data set [3], the Michaelis constant (Km) was 750 µM and the maximum rate (Vmax) was 0.14 µmol/min/mg. The Michaelis-Menten constant (Km) in data set [4] was 1870 µM.

B2: Diphosphomevalonate decarboxylase (Rattus norvegicus), Q62967 R154A (protein)
chain: MASEKPQDLMVTCTAPVNIAVIKYWGKRDEALILPINPSLSVTLHQDQLKTTTTAAISKDFTEDRIWLNGREEDVGQPRLQACLREIRRLARKRRSTGDGDALPLSLGYKVHVASVNNFPTAAGLASSAAGYACLAYTLARVYGVEGDLSEVAARGSGSACRSLYGGFVEWQMGEQADGKDSIARQIAPEWHWPQLRVLILVVSAEKKPTGSTVGMQTSVATSTLLKFRAESIVPERMKEMTRCIQEQDFQAFAQLTMKDSNQFHATCLDTFPPISYLNDTSRRIIQLVHRFNAHHGQTKVAYTFDAGPNAVIFTLEDTVAEFVAAVRHSFPPAANGDKFLKGLQVAPVLLSDELKTSLATEPSPGGVQYIIATQVGPGPQVLDDPHHHLLGPDGLPQRDL
Take B2: in data set [5], the Michaelis-Menten constant (Km) was determined as 920 µM and the Vmax stood at 0.34 µmol/min/mg. Besides, the Michaelis constant (Km) in data set [6] worked out at 1400 µM.
